Reference: paper PMC3647702 (ACS medicinal chemistry letters, 2013)

Tests used:
clade B viruses = assay: Neutralization of clade B Env pseudoviruses; type: cell-based, HIV-1
clade C viruses = assay: Neutralization of clade C Env pseudoviruses; type: cell-based, HIV-1
[1] = system: 42 Tier 2 clade B and C viruses; conditions: read-out: geometric mean titers (GMT) IC50, sensitive strains; cited from earlier work
full-length gp120 = full-length gp120 (Human immunodeficiency virus type 1 group M subtype B, UniProt P35961); conditions: gp120 binding; cited from earlier work
[2] = system: HIV-1YU2 virus in CD4 negative Cf2Th-CCR5 cells; conditions: cells lacking the CD4 receptor (CD4–CCR5+ Cf2Th cells); cited from earlier work

## N=C(N)NC[C@H]1Cc2ccccc2[C@@H]1NC(=O)C(=O)Nc1ccc(Cl)c(F)c1.O=CO [(+)-4]
Clade B viruses
  improvement over (+)-3 based on IC50 titers: 60%
  improvement over (+)-3 based on IC80 titers: 1.5 fold
  neutralization breadth: 100%
Clade C viruses
  neutralization breadth: 59%

## N=C(N)N[C@@H]1Cc2ccccc2[C@H]1NC(=O)C(=O)Nc1ccc(Cl)c(F)c1 [(−)-3]
[1]
  IC50: 8.9 µM

## CC1(C)CC(NC(=O)C(=O)Nc2ccc(Cl)cc2)CC(C)(C)N1 [Compound 1, NBD-556]
full-length gp120
  ΔH: -24.5 kcal/mol
  −TΔS: 17.1 kcal/mol
[2]
  CD4-independent viral entry: agonists of CD4-independent viral entry

## N=C(N)N[C@H]1Cc2ccccc2[C@@H]1NC(=O)C(=O)Nc1ccc(Cl)c(F)c1 [(+)-3]
[1]
  IC50: 7.9 µM
